Consider five compounds from patent US20260216216A1, “(N-ALKYLDIHYDROL-2H-OXAZINYL)-CANNABIDIOL AS ANTI-PROLIFERATIVE AGENT AND PROCESS FOR PREPARATION THEREOF” (COUNCIL OF SCIENTIFIC AND INDUSTRIAL RESEARCH, priority 2022, published 2026).

As usually defined, the inhibition is the relative decrease from the control value, in per cent.

Read-outs that look alike come from different tables or passages of the source.

The subject of series [1] is HCT-116 (colorectal cancer) cell line. Briefly: SRB in-vitro cytotoxicity assay, HCT-116. The following applies: Homo sapiens. The protocol: (§1) All the ring annulated analogues of cannabinoid were evaluated for their cytotoxicity against number of human cancer cell lines. To evaluate the in-vitro cytotoxicity, a sulphorhodamine B (SRB) assay was carried out. SRB is a negatively charged pink aminoxanthine dye that binds to the basic amino acid of cells in mildly acidic conditions and is removed in basic conditions. […] When cells reached 60-70% confluency, trypsinized and seeded in 96 well plates according to their inoculation density and incubated for 24 hours to attain their proper morphology. Next-day cells were again incubated for 48 hours with test compounds or paclitaxel (positive control). Next, cells were fixed with 50% of ice-cold TCA for 1 hours, washed with distilled water, and kept for air drying. Air-dried plates were then stained with 0.4% SRB dye for 30 minutes and subsequently with water and 1% v/v glacial acetic acid were then kept for air drying. […] The viability of cells is measured based on bound dye after fixation, which is measured by absorbance at 540 nm.

Series [2] has as its system MCF-7 (breast cancer) cell line. Put plainly: SRB in-vitro cytotoxicity assay, MCF-7. The settings on record: Homo sapiens. On the procedure:
as §1

Series [3] concerns A549 (lung cancer) cell line. Briefly: SRB in-vitro cytotoxicity assay, A549. The following applies: Homo sapiens. On the procedure:
as §1

Series [4] relates to Mia-PaCa (pancreatic cancer) cell line. Put plainly: SRB in-vitro cytotoxicity assay, Mia-PaCa. The following applies: Homo sapiens. The protocol:
as §1

The subject of series [5] is PC-3 (prostate cancer) cell line. Briefly: SRB in-vitro cytotoxicity assay, PC-3. The settings on record: Homo sapiens. On the procedure:
as §1

Series [6] concerns U251 (glioblastoma) cell line. Put plainly: SRB in-vitro cytotoxicity assay, U251. The following applies: Homo sapiens. The protocol: as §1
A short description of series [7]: in vitro. The settings on record: human. On the procedure: as §1
The subject of series [8] is HEK-293 (normal cell lines). Put plainly: SRB in-vitro cytotoxicity assay, HEK-293. The following applies: Homo sapiens, HEK293, read-out: inhibition against HEK-293 cell lines. On the procedure:
as §1

[9] abbreviates: HCT-116, 48 h, read-out: Cytotoxicity (in vitro cell inhibition) HCT-116.
[10] abbreviates: HCT-116, read-out: inhibition against HCT-116 cell lines.
The mark [11] stands for this setting: MCF7, 48 h, read-out: Cytotoxicity (in vitro cell inhibition) MCF-7.
Setting [12] is: MCF7, read-out: inhibition against MCF-7 cell lines.
The mark [13] stands for this setting: A549, 48 h, read-out: Cytotoxicity (in vitro cell inhibition) A549.
Where [14] appears, read: A549, read-out: inhibition against A549 cell lines.
Setting [15] is: MIA PaCa-2, 48 h, read-out: Cytotoxicity (in vitro cell inhibition) Mia-PaCa.
Where [16] appears, read: MIA PaCa-2, read-out: inhibition against Mia-PaCa cell lines.
The mark [17] stands for this setting: 48 h, read-out: Cytotoxicity (in vitro cell inhibition) PC3.
Setting [18] is: PC-3, read-out: inhibition against PC3 cell lines.
Setting [19] is: U-251, 48 h, read-out: Cytotoxicity (in vitro cell inhibition) U251.
The mark [20] stands for this setting: U-251, read-out: inhibition against U251 cell lines.

Consider `C=C(C)[C@@H]1CCC(C)=C[C@H]1c1c(O)cc(CCCCC)c2c1OCN(C)C2` [Ia, (N-methyldihydrol-2H-oxazinyl)-cannabidiol], for which the inhibition at 20 µM in series [1] (setting [9]) is 50 to 70%; in series [1] (setting [10]), over 50%; in series [2] (setting [11]), over 70%; in series [2] (setting [12]), over 70%; in series [3] (setting [13]) it was over 70%; in series [3] (setting [14]), over 70%. For the same compound, the inhibition at 20 µM in series [4] (setting [15]), in series [4] (setting [16]), in series [5] (setting [17]), in series [5] (setting [18]), in series [6] (setting [19]) and in series [6] (setting [20]) was over 70% throughout. Further, the inhibition at 20 µM in series [7] and in series [8] was over 70% in each case.
For the compound `C=C(C)[C@@H]1CCC(C)=C[C@H]1c1c(O)cc(CCCCC)c2c1OCN(CC)C2` [Ib, (N-ethyldihydrol-2H-oxazinyl)-cannabidiol], the inhibition at 20 µM was 50 to 70% in series [1] (setting [9]); over 50% in series [1] (setting [10]); over 70% in series [2] (setting [11]); over 70% in series [2] (setting [12]); over 70% in series [3] (setting [13]); over 70% in series [3] (setting [14]). The inhibition at 20 µM in series [4] (setting [15]) was over 70%; in series [4] (setting [16]) it was over 70%; in series [5] (setting [17]), over 70%; in series [5] (setting [18]), over 70%; in series [6] (setting [19]) it was 50 to 70%; in series [6] (setting [20]), over 50%. Moreover, the inhibition at 20 µM in series [7] is 50 to 70%; in series [8], over 50%.
Turning to `C=C(C)[C@@H]1CCC(C)=C[C@H]1c1c(O)cc(CCCCC)c2c1OCN(CCCN1CCOCC1)C2` [If, (N-morpholinopropyldihydrol-2H-oxazinyl)-cannabidiol], the inhibition at 20 µM in series [1] (setting [9]) was 50 to 70%; in series [1] (setting [10]), over 50%; in series [2] (setting [11]), over 70%; in series [2] (setting [12]) it was over 70%; in series [3] (setting [13]), over 70%; in series [3] (setting [14]), over 70%. For the same compound, the inhibition at 20 µM in series [4] (setting [15]), in series [4] (setting [16]), in series [5] (setting [17]), in series [5] (setting [18]), in series [6] (setting [19]) and in series [6] (setting [20]) was over 70% throughout. The inhibition at 20 µM in series [8] was over 50%. This compound returned an inhibition at 48 h, 20 µM in series [7] of 50 to 70%.
`C=C(C)[C@@H]1CCC(C)=C[C@H]1c1c(O)cc(CCCCC)c2c1OCN(C1CCC1)C2` [Ih, (N-cyclobutyldihydrol-2H-oxazinyl)-cannabidiol]: the inhibition at 20 µM in series [1] (setting [9]) is 50 to 70%; in series [1] (setting [10]), over 50%; in series [2] (setting [11]) it was over 70%; in series [2] (setting [12]), over 70%; in series [3] (setting [13]), 50 to 70%; in series [3] (setting [14]), over 50%. In addition, the inhibition at 20 µM was over 70% in series [4] (setting [15]); over 70% in series [4] (setting [16]); over 70% in series [5] (setting [17]); over 70% in series [5] (setting [18]); 50 to 70% in series [6] (setting [19]); over 50% in series [6] (setting [20]). The figures for the inhibition at 20 µM in series [7] and in series [8] were 50 to 70% and over 50%, respectively.
Consider `CC(=O)O[C@H]1C(=O)[C@@]2(C)[C@H]([C@H](OC(=O)c3ccccc3)[C@]3(O)C[C@H](OC(=O)[C@H](O)[C@@H](NC(=O)c4ccccc4)c4ccccc4)C(C)=C1C3(C)C)[C@]1(OC(C)=O)CO[C@@H]1C[C@@H]2O` [Paclitaxel, paclitaxel, reference compound], for which the inhibition at 20 µM in series [1] (setting [9]), in series [1] (setting [10]), in series [2] (setting [11]), in series [2] (setting [12]), in series [3] (setting [13]) and in series [3] (setting [14]) was over 70% throughout. Also, the inhibition at 20 µM in series [4] (setting [15]), in series [4] (setting [16]), in series [5] (setting [17]), in series [5] (setting [18]), in series [6] (setting [19]) and in series [6] (setting [20]) was over 70% throughout. In addition, the inhibition at 20 µM in series [8] is over 70%. Moreover, in series [7], the inhibition at 48 h, 20 µM is over 70%.
